Source: PMC10096123, “14-Substituted Diquinothiazines as a New Group of Anticancer Agents” (Molecules, 2023)
“Also recorded” adds a separate entry of the source.

Columns and labels:
[1] = test system: H1299 cells; experiment: 72-h MTT viability assay, H1299; type: cell-based, human; details: 72 h incubation, mean of 3 experiments +/-SD
Excerpt: (§1) The IC50 for cell viability was described with a dose of the drug, with a 50% reduction in the whole population, when compared to the untreated controls. The obtained results allow for a comparison of different compounds, using the same or different targeted cell lines. Cell survival fractions (SF), followed by the MTT 72-h viability assay for the HCT116 and SH-5YSY cells, are presented in the Supplementary File (Figure S1).
(§2) For cytological studies, human cancer cell lines were chosen, with special emphasis on the colorectal, HCT116, and neuroblastoma SH-5YSY cell lines, as well as lung normal epithelial BEAS-2B and cancer H1299 and A549 cancer cell lines (all obtained from the ATTC collection; Manassas, VA, USA). The cells were harvested under the standard conditions in incubator (5% CO2, 37 °C and 60% humidity; Panasonic model MCO-19 AIC). Cells were cultured in T75 mL sterile bottles (Sartedt), using DMEM-F12 medium (Merck, Poznań, Poland) supplemented with 10% of Fetal Bovine Serum (EURx, Gdańsk, Poland). During the experimental procedure, each cell line wasn’t more than 60–80% confluenced, no older than maximal number of passages 30. For adherent cell passages, the enzyme trypsin working solution, prepared in sodium phosphate buffer saline (PBS, pH = 7.4; PAN-Biotech Gmbh, Aidenbach, Germany), was used. The tested compounds were prepared as […] stocks in 100% DMSO (Merck, Poznań, Poland), and were stored at −20 °C. Before use in cytological studies, the working solution of each compound was prepared directly in complete DMEM-F12 medium. A positive-control, anticancer drug, etoposide (Merck, Poznań, Poland), was dissolved and prepared as solutions with doses of 20, 10, 5, 2.5, 1.25, 0.63 µM (0 µM for control, untreated cells in DMEM-F12 without any tested compound additions), respectively.
(§3) HCT116 and SH-5YSY cells collected after trypsinization were counted under the Bürker’s chamber, and 2000 or 5000 cells were seeded on each well of the 96-well-format sterile plate (Sarstedt, Nümbrecht, Germany), in 100 µL of complete DMEM-F12 medium, respectively. Twenty-four hours before compound addition, the cells were monitored directly on plates; only well-attached cells were used for treatments with background controls (DMSO with final maximal concentration of 1%) and untreated controls. The normal lung (BEAS-2B) and cancer (H1299 and […]) cell lines were cultured and prepared for viability MTT assay in similar way. To treat wells, 100 µL of tested compounds in fresh medium were added at concentration range of 100, 50, 25, 12.5, 6.25, 3.13 µM (0 µM for control, untreated cells in DMEM-F12 without any tested compound additions). An etoposide as a positive control, as anticancer drug, was prepared in similar way. Followed by 72 h of incubation, the viability assay was performed according to the producer protocol (Promega, Madison, WI, USA), where the medium and compounds were removed and cells were washed with PBS solution. A yellow tetrazolium salt (3-(4,5-dimethylthiazol-2-yl)-2,5-diphenyltetrazolium bromide solution (0.5 mg/mL) in serum and phenol red-free DMEM (Merck, Poznań, Poland) was added to each well on plates at a volume of 50 µL for 2–3 h of darkness, at 37 °C incubation. The purple formazan crystals were produced only by the viable cells, containing NAD (P)H-dependent oxidoreductase enzymes, which reduce the MTT. The crystals were dissolved in acidic (0.04 M HCl) 2-propanolol solution (Merck, Poznań, Poland) after addition of 75 µL of dissolving mixture to each well on plates for 5–10 min in darkness and at room-temperature (RT) incubation. The absorption at 570 nm was measured directly using multiplate reader (Epoch, BioTek, Winooski, VT, USA). Each time, the biological experiments were repeated three times.
(§4) Obtained absorbance was analyzed for proliferation and survival fraction (SF) assessments, where tested samples were compared to the untreated controls (100%). […]

[2] = test system: HCT116 cells; experiment: 72-h MTT viability assay, HCT116; type: cell-based, human; details: 72 h incubation, mean of 3 experiments +/-SD
Excerpt: as §1, §2, §3, §4

[3] = test system: A549 cells; experiment: 72-h MTT viability assay, A549; type: cell-based, human; details: 72 h incubation, mean of 3 experiments +/-SD
Excerpt: as §1, §2, §3, §4

[4] = test system: BEAS-2B cells; experiment: 72-h MTT viability assay, normal lung epithelial BEAS-2B; type: cell-based, human; details: 72 h incubation, mean of 3 experiments +/-SD, no effect = viability (SF) similar to control, about 100%; for IC50: Homo sapiens, BEAS-2B
Excerpt: as §1, §2, §3, §4

[5] = test system: SH-SY5Y cells; experiment: 72-h MTT viability assay, SH-SY5Y; type: cell-based, human; details: 72 h incubation, mean of 3 experiments +/-SD, no effect = viability (SF) similar to control, about 100%; for IC50: Homo sapiens, SH-SY5Y
Excerpt: as §1, §2, §3, §4

[6] = test system: HCT116, SH-SY5Y, A549, H1299 cell lines; experiment: 72-h MTT viability assay, all cell lines used in the study (summary statements); type: cell-based, human; details: for anticancer activity (ranking within the series): HCT116 and SH-SY5Y, in words
Excerpt: as §1, §2
HCT116 and SH-5YSY cells collected after trypsinization were counted under the Bürker’s chamber, and 2000 or 5000 cells were seeded on each well of the 96-well-format sterile plate (Sarstedt, Nümbrecht, Germany), in 100 µL of complete DMEM-F12 medium, respectively. Twenty-four hours before compound addition, the cells were monitored directly on plates; only well-attached cells were used for treatments with background controls (DMSO with final maximal concentration of 1%) and untreated controls. The normal lung (BEAS-2B) and cancer (H1299 and […]) cell lines were cultured and prepared for viability MTT assay in similar way. […] The absorption at 570 nm was measured directly using multiplate reader (Epoch, BioTek, Winooski, VT, USA). […]
as §4

SMILES | IC50 ([1]; Homo sapiens, NCI-H1299, 72 h) [µM] | IC50 ([2]; Homo sapiens, HCT-116, 72 h) [µM] | IC50 ([3]; Homo sapiens, A549, 72 h) [µM] | IC50 [5] [µM] | IC50 SH-SY5Y [5] | IC50 [2] [µM] | melting point [°C] | IC50 [1] [µM] | IC50 ([6]; Homo sapiens, range over the cancer cell lines, read-out: IC50 values against all cell lines used in the study) [µM] | IC50 [3] [µM] | IC50 ([3]; listed as etopiside) [µM] | IC50 [4] [µM] | IC50 BEAS-2B [4] | anticancer activity (ranking within the series) [6]
CCN(CC)CCN1c2c(cnc3ccccc23)Sc2cnc3ccccc3c21 [Compound 2f] | 22.2 ± 3.83 | 16.9 ± 1.73 | 27.9 ± 2.07 |  | inactive; also recorded: no effect |  |  |  |  |  |  | 122 ± 12 |  | 
CN(C)CCCN1c2c(cnc3ccccc23)Sc2cnc3ccccc3c21 [Compound 2g] | 24.5 ± 1.91 | 13.1 ± 1.82 | 31.5 ± 2.36 |  | inactive; also recorded: no effect |  |  |  |  |  |  |  | no effect | 
FC(F)(F)c1ccc(N2c3c(cnc4ccccc34)Sc3cnc4ccccc4c32)cc1 [Compound 3b, 14-(4-trifluoromethylphenyl)diquinothiazine] | 14.6 ± 1.92 | 17.1 ± 4.81 | 42.5 ± 16.5 |  | inactive; also recorded: no effect |  | 292 to 293 |  |  |  |  | 86.1 ± 11 |  | 
CC(=O)NCCN1c2c(cnc3ccccc23)Sc2cnc3ccccc3c21 [Compound 5a, 14-acetylaminoethyldiquinothiazine] | 26.2 ± 1.99 | 25.9 ± 4.87 | 71.1 ± 14.7 | 24.7 ± 5.44 |  |  | 89 to 90 |  |  |  |  | 108 ± 9.83 |  | lowest anticancer activity
CC(=O)NCCCN1c2c(cnc3ccccc23)Sc2cnc3ccccc3c21 [Compound 5b, 14-acetylaminopropyldiquinothiazine] | 23.5 ± 1.97 | 17.7 ± 1.53 | 56.5 ± 15.6 | 21.4 ± 4.02 |  |  | 171 to 172 |  |  |  |  | 86.9 ± 9.67 |  | 
CC(=O)NCCCCN1c2c(cnc3ccccc23)Sc2cnc3ccccc3c21 [Compound 5c, 14-acetylaminobutyldiquinothiazine] | 30.3 ± 1.57 | 26.5 ± 1.15 | 49.3 ± 15.9 | 21.9 ± 4.31 |  |  | 68 to 69 |  |  |  |  |  | no effect | lowest anticancer activity
CS(=O)(=O)NCCN1c2c(cnc3ccccc23)Sc2cnc3ccccc3c21 [Compound 6a, 14-methanesulfonylaminoethyldiquinothiazine] | 36.9 ± 6.06 | 20.2 ± 1.01 | 65.4 ± 14.1 |  | inactive; also recorded: no effect |  | 229 to 230 |  |  |  |  |  | no effect | 
CS(=O)(=O)NCCCN1c2c(cnc3ccccc23)Sc2cnc3ccccc3c21 [Compound 6b, 14-methanesulfonylaminopropyldiquinothiazine] | 25.9 ± 4.14 | 15.6 ± 1.16 | 45.2 ± 17.2 |  | inactive; also recorded: no effect |  | 199 to 200 |  |  |  |  |  | no effect | 
c1ccc2c3c(cnc2c1)Sc1cnc2ccccc2c1N3 [Compound M0] | 67.2 ± 9.64 | 5.8 ± 0.63 | 18 ± 3.09 |  | inactive; also recorded: no effect |  |  |  |  |  |  |  | no effect | 

These reach a lower IC50 ([1]; Homo sapiens, NCI-H1299, 72 h). Values come first.

IC50 ([1]; Homo sapiens, NCI-H1299, 72 h) [µM] | IC50 ([2]; Homo sapiens, HCT-116, 72 h) [µM] | IC50 ([3]; Homo sapiens, A549, 72 h) [µM] | IC50 [5] [µM] | IC50 SH-SY5Y [5] | IC50 [2] [µM] | melting point [°C] | IC50 [1] [µM] | IC50 ([6]; Homo sapiens, range over the cancer cell lines, read-out: IC50 values against all cell lines used in the study) [µM] | IC50 [3] [µM] | IC50 ([3]; listed as etopiside) [µM] | SMILES | IC50 [4] [µM] | IC50 BEAS-2B [4] | anticancer activity (ranking within the series) [6]
8.1 ± 1.83 | 11.1 ± 3.39 | 13.3 ± 2.23 | 6.5 ± 1.22 |  |  |  |  |  |  |  | c1ccc2c3c(cnc2c1)Sc1cnc2ccccc2c1N3CCN1CCCC1 [Compound 2a, 14-(pyrrolidinylethyl)diquinothiazine] | 84.5 ± 11.1 |  | 
5.3 ± 1.04 | 9.4 ± 4.41 | 12.4 ± 2.25 | 7.7 ± 2.59 |  |  |  |  |  |  |  | O=C1CCCN1CCCN1c2c(cnc3ccccc23)Sc2cnc3ccccc3c21 [Compound 2b, 14-(pyrrolidinonylpropyl)diquinothiazine] | 83.5 ± 12.3 |  | 
7.5 ± 1.97 |  | 14.7 ± 2.81 | 14.3 ± 1.49 |  |  |  |  |  |  |  | c1ccc2c3c(cnc2c1)Sc1cnc2ccccc2c1N3CCN1CCCCC1 [Compound 2c] |  | no effect | 
8.9 ± 1.02 | 23.1 ± 1.37 | 20.7 ± 2.25 | 13.5 ± 2.69 |  |  |  |  |  |  |  | c1ccc2c3c(cnc2c1)Sc1cnc2ccccc2c1N3CCN1CCOCC1 [Compound 2d] | 118 ± 18.4 |  | 
7 ± 1.85 | 10.3 ± 1.82 | 10.1 ± 2.26 | 4.9 ± 0.87 |  |  |  |  |  |  |  | c1ccc2c3c(cnc2c1)Sc1cnc2ccccc2c1N3CCN1CCNCC1 [Compound 2e, 14-(piperazinyloethyl)dichinotiazyny] | 26.5 ± 1.85 |  | 
3.7 ± 0.91 | < 8.6 | 84.9 ± 12.1 |  | inactive; also recorded: no effect | 4.9 ± 1.97 | > 300 |  |  |  |  | N#Cc1ccc(N2c3c(cnc4ccccc34)Sc3cnc4ccccc4c32)cc1 [Compound 3a, 14-(4-cyanophenyl)diquinothiazine] |  | no effect | 
2.7 |  | 17.2 ± 1.02 | 2.7 ± 0.21 |  |  | 262 to 263 | 1.6 ± 0.86 | 1.6 to 17.2 |  |  | CSc1ccc(N2c3c(cnc4ccccc34)Sc3cnc4ccccc4c32)cc1 [Compound 3c, 14-(methylthiophenyl)diquinothiazine] | 69 ± 4.89 | low cytotoxicity | strongest anticancer activity
13.4 ± 1.68 | 17.6 ± 1.85 | 36.9 ± 16.8 | 21.6 ± 7.64 |  |  | 184 to 186 |  |  |  |  | CS(=O)(=O)NCCCCN1c2c(cnc3ccccc23)Sc2cnc3ccccc3c21 [Compound 6c, 14-methanesulfonylaminobutyldiquinothiazine] |  | no effect | 
0.6 ± 0.16 | 8.6 ± 1.42 |  | 3.9 ± 0.76 |  |  |  |  |  | 4.48 ± 0.21 | 44.8 | COc1cc([C@@H]2c3cc4c(cc3[C@@H](O[C@@H]3O[C@@H]5CO[C@@H](C)O[C@H]5[C@H](O)[C@H]3O)[C@H]3COC(=O)[C@H]23)OCO4)cc(OC)c1O [etoposide, reference compound] | 0.00311 ± 0.0002 |  | 
